Earlier results in patent publication US20250312497A1, “METHOD OF TREATING PROSTATE CANCER” (Novartis AG, priority 2022, published 2025).

Tests used:
[1] = tested on: docetaxel progressing metastatic castration-resistant prostate cancer; settings: randomized, 200 patients; P<0.0001; cited from earlier work
mCRPC = settings: control arm; prior docetaxel and abiraterone acetate and/or enzalutamide; cited from earlier work

Compound	proportion of patients with PSA decline >=50% [1] [%]	median overall survival (mCRPC) [months]
CO[C@H]1C(=O)[C@]2(C)[C@@H](OC)C[C@H]3OC[C@@]3(OC(C)=O)[C@H]2[C@H](OC(=O)c2ccccc2)[C@]2(O)C[C@H](OC(=O)[C@H](O)[C@@H](NC(=O)OC(C)(C)C)c3ccccc3)C(C)=C1C2(C)C [cabazitaxel]	37	–
C[C@]12C=CC(=O)C=C1CC[C@@H]1[C@@H]2C(=O)C[C@@]2(C)[C@H]1CC[C@]2(O)C(=O)CO [prednisone]	–	9.8
